Laboratory results: patent US20240294876A1, “METHODS FOR THE EXPANSION OF HUMAN GRANULOCYTE-MACROPHAGE PROGENITORS AND APPLICATIONS THEREOF” (University of Southern California, priority 2021, published 2024)

Columns and labels:
mouse GMPs = assay: Ex vivo expansion of mouse bone marrow-derived cells / mouse GMPs; assay type: cell-based; settings: for effect on expansion of mouse GMPs in SCF/2i: Wnt/β-catenin signaling inhibitor added to SCF/2i; for ability to mimic the effect of SKL2001 for the expansion of mouse GMPs: in place of SKL2001
Description: (§1) (A) Schematic of the experimental design to identify growth factors and small molecules that can promote expansion of mouse bone marrow-derived stem cells. (B) Representative phase-contrast images of mouse bone marrow cells cultured in N2B27 supplemented with the indicated small molecule inhibitors for 7 days. (C) Representative phase-contrast images of mouse bone marrow cells cultured in N2B27 supplemented with SCF plus GDC0879 or SB590885 for 3 passages. (D) Cell growth curves. Bone marrow cells isolated from C57BL/6J mice were plated into 24-well plates at a density of 2×10^5 cells/well and cultured in B7 medium supplemented with the indicated small molecules/growth factor. Cells were counted and passaged every 3 days. Data are represented as mean±SD from three independent experiments. (E) Bone marrow cells isolated from C57BL/6J mice were cultured in B7 medium supplemented with SCF/2i. Cells were passaged every 3 days. Representative phase-contrast pictures showing SCF/2i cells at different passages. (F) Cytogenetic analysis of SCF/2i cells using the GWT banding method. Bone marrow cells isolated from a female C57BL/6J mouse were expanded in SCF/2i for 8 passages before used for cytogenetic analysis. […] (G) Sequential images of individual bone marrow cells during expansion in B7 medium supplemented with SCF/2i. SCF/2i-expanded bone marrow cells were plated into 96-well plates at a density of 50 cells/well and cultured in SCF/2i. Sequential images were taken using the Keyence BZ-X710 microscopy every 24 hours. 15.7±4.0 colonies formed per well on day 4 (n=3×96). Data are represented as mean±SD from three independent experiments.
Mouse GMP derivation, expansion, and differentiation. Cells were cultured at 37° C. in a 5% CO2 water jacket incubator (Thermo Scientific). Bone marrow cells isolated from C57BL/6J, mTmG or CAG-Cas9-EGFP mice were plated into 6-well plates at a density of 2×10^6 cells/well and cultured in 2 mL B7 medium supplemented with 50 ng/mL SCF, 1 μM GDC-0879, and 10 μM SKL2001 (SCF/2i). After 3-4 days, cells were dissociated into single-cell suspension by pipetting up and down and replated into 6-well plates at a density of 2×10^6 cells/well and cultured in 2 mL B7 medium supplemented with SCF/2i. After 2 passages in SCF/2i, the majority of cells were GMPs. GMPs were routinely passaged every 3 days. To induce differentiation, GMPs were plated into 10 cm tissue culture dishes and cultured in RPMI-1640 medium containing 10% FBS and supplemented with either 20 ng/mL M-CSF (for macrophage differentiation) or 20 ng/mL G-CSF (for granulocyte differentiation). GMP-derived macrophages were harvested on day 7 (medium was changed once on day 4) and GMP-derived granulocytes were harvested on day 3 and used for the further experiments.
Development of defined conditions for the long-term ex vivo expansion of hematopoietic stem/progenitor cells. To develop conditions for the long-term expansion of stem or progenitor cells of the hematopoietic system, screening was conducted to identify small molecules and growth factors/cytokines that can promote their ex vivo expansion (see FIG. 3A). Specifically, bone marrow cells isolated from adult C57BL/6 mice were plated into 96-well plates in serum-free N2B27 medium. Then a first-round small molecule screening was performed. It was reasoned that if a small molecule can block differentiation or promote expansion of stem cells, these stem cells should form colonies with a uniform cell morphology. […] Upon passaging, however, no new colonies were formed in culture with any of the 5 small molecule inhibitors. A second-round screening was conducted to identify growth factors/cytokines that could further improve the expansion of the colonies.
More importantly, these cells could be expanded robustly at clonal density (see FIG. 3G).
SCF/2i-expanded cells are GMPs. […]

[1] = tested on: bone marrow cells isolated from adult C57BL/6 mice; assay: Small molecule screen for colony formation of mouse bone marrow cells in serum-free N2B27; assay type: cell-based; settings: 96-well plates, serum-free N2B27, single small molecule, 7 days in culture
Description: as §1
Based on this finding, it was postulated that many, if not all, types of stem cells can be maintained during long-term in vitro culture by inhibiting signaling pathways responsible for initiating differentiation. […]

myeloperoxidase (MPO) = molecular target: T1, myeloperoxidase (MPO) (Mus musculus, UniProt P11247); assay: Myeloperoxidase (MPO) activity assay in SCF/2i GMP-derived granulocytes and blood neutrophils; assay type: cell-based; settings: 100 nM for 2 hours
T1 construct: The supernatants were harvested and MPO activities were measured using the neutrophil MPO activity assay kit; endogenous in cells; host or cells: mouse SCF/2i GMPs, SCF/2i GMP-derived granulocytes and mouse blood neutrophils; MPO measured in culture supernatant after PMA stimulation
T1 sequence (P11247 139-718): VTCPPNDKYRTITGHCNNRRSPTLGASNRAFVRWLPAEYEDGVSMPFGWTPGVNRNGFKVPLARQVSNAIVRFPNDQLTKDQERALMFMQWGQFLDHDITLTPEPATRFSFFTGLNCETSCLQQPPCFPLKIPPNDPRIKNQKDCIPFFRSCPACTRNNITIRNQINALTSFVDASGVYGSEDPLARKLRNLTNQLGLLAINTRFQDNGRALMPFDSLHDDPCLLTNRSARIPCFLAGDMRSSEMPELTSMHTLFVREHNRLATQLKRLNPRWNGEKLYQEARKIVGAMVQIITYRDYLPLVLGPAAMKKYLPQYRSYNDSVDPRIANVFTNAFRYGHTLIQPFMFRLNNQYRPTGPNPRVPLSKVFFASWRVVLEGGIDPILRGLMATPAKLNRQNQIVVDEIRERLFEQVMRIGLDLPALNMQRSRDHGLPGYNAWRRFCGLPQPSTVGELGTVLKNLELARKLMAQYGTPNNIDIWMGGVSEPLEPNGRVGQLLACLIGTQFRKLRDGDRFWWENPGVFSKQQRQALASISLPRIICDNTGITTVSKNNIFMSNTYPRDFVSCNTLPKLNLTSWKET
Method: (F) ELISA analysis of cytokine secretion and MPO activity measurement in the indicated cells stimulated with 500 ng/ml LPS for 6 hours (for ELISA assay) or 100 nM PMA for 2 hours (for MPO assay). Data are represented as mean±SD from three independent experiments. Ctrl, no treatment control; ns, not significant.
Myeloperoxidase (MPO) assay. SCF/2i GMPs, blood neutrophils and SCF/2i GMP-derived granulocytes were plated into 96-well plates at a density of 2×10^4 cells/well and cultured in 100 μl RPMI 1640 medium supplemented with 10% FBS. […] The supernatants were harvested and MPO activities were measured using the neutrophil MPO activity assay kit (Cayman, 600620) according to the manufacturer's instructions.

SCF/2i GMPs = assay: In vitro differentiation of SCF/2i GMPs, flow cytometry; assay type: cell-based, mouse
Method: (A) Immunofluorescence and flow cytometry analysis of CD11b and F4/80 expression in cells differentiated from SCF/2i GMPs after treatment with M-CSF for 7 days. Flow cytometry data are represented as mean±SD from three independent experiments. (B) ELISA analysis of cytokine secretion in bone marrow (BM) and SCF/2i GMP-derived macrophages stimulated with 500 ng/ml LPS for 6 hours. Data are represented as mean±SD from three independent experiments. (C) Phagocytosis analysis of SCF/2i GMP-derived macrophages by incubating with FITC-labeled latex beads for 1 hour. Upper panel, a representative fluorescent image (green, FITC-labeled beads; blue, macrophage cell nuclei). Lower panel, flow cytometry analysis of SCF/2i GMP-derived macrophages incubated with (red) or without (blue) FITC-labeled latex beads. Flow cytometry data are represented as mean±SD from three independent experiments. (D) Time-lapse images of tdTomato-positive SCF/2i GMP-derived macrophages incubated with GFP labeled E. coli. The numbers on the images indicate the times in minutes. Arrows and arrowheads indicate the bacteria engulfed by macrophages. (E) Giemsa staining (upper panel) and flow cytometry analysis (lower panel) of SCF/2i GMPs treated with PBS or G-CSF for 3 days. Flow cytometry data are represented as mean±SD (n=5). […] A total of 192×3 wells from three independent experiments were counted for each group. […]

Cc1cc([N+](=O)[O-])ccc1NS(=O)(=O)c1cc(Cl)ccc1Cl [FH535]
effect on expansion of mouse GMPs in SCF/2i (mouse GMPs): not affected

Cc1c[nH]c(-c2cnc(NCCNc3ccc(C#N)cn3)nc2-c2ccc(Cl)cc2Cl)n1 [CHIR99021]
ability to mimic the effect of SKL2001 for the expansion of mouse GMPs (mouse GMPs): could not mimic the effect of SKL2001

COc1cccc(-c2cc(NCc3ccc4c(c3)OCO4)nc(N)n2)c1 [Wnt agonist 1]
ability to mimic the effect of SKL2001 for the expansion of mouse GMPs (mouse GMPs): could not mimic the effect of SKL2001

O=C(Nc1cccc2cccnc12)c1ccc(N2C(=O)[C@@H]3[C@H](C2=O)[C@@H]2C=C[C@H]3C2)cc1 [IWR1]
formation of colonies with uniform cell morphology [1]: clusters of colonies were observed being formed
effect on expansion of mouse GMPs in SCF/2i (mouse GMPs): not affected

CCCCCCCCCCCCCC(=O)O[C@@H]1[C@@H](C)[C@@]2(O)[C@@H](C=C(CO)C[C@]3(O)C(=O)C(C)=C[C@@H]23)[C@@H]2C(C)(C)[C@]12OC(C)=O [PMA, phorbol myristate acetate]
MPO activity upon activation (myeloperoxidase (MPO)): significantly increased

Cc1cccc(-c2nn(C(=S)Nc3ccccc3)cc2-c2ccnc3ccccc23)n1 [A-8301]
formation of colonies with uniform cell morphology [1]: clusters of colonies were observed being formed

C[S+]([O-])c1ccc(-c2nc(-c3ccncc3)c(-c3ccc(F)cc3)[nH]2)cc1 (centres unmarked) [SB203580]
formation of colonies with uniform cell morphology [1]: clusters of colonies were observed being formed

Wnt3a
ability to mimic the effect of SKL2001 for the expansion of mouse GMPs (mouse GMPs): could not mimic the effect of SKL2001

B1: G-CSF: granulocyte colony stimulating factor (protein, UniProt P09919 31-207, looked up)
Granulocyte …: TPLGPASSLPQSFLLKCLEQVRKIQGDGAALQEKLVSECATYKLCHPEELVLLGHSLGIPWAPLSSCPSQALQLAGCLSQLHSGLFLYQGLLQALEGISPELGPTLDTLQLDVADFATTIWQQMEELGMAPALQPTQGAMPAFASAFQRRAGGVLVASHLQSFLEVSYRVLRHLAQP
cells Ly6G+CD115− (SCF/2i GMPs; SCF/2i GMPs treated for 3 days): more than 80%

B2: M-CSF: macrophage differentiation factor (protein, UniProt P09603 33-554, looked up)
Macrophage colony-stimulating …: EEVSEYCSHMIGSGHLQSLQRLIDSQMETSCQITFEFVDQEQLKDPVCYLKKAFLLVQDIMEDTMRFRDNTPNAIAIVQLQELSLRLKSCFTKDYEEHDKACVRTFYETPLQLLEKVKNVFNETKNLLDKDWNIFSKNCNNSFAECSSQDVVTKPDCNCLYPKAIPSSDPASVSPHQPLAPSMAPVAGLTWEDSEGTEGSSLLPGEQPLHTVDPGSAKQRPPRSTCQSFEPPETPVVKDSTIGGSPQPRPSVGAFNPGMEDILDSAMGTNWVPEEASGEASEIPVPQGTELSPSRPGGGSMQTEPARPSNFLSASSPLPASAKGQQPADVTGTALPRVGPVRPTGQDWNHTPQKTDHPSALLRDPPEPGSPRISSLRPQGLSNPSTLSAQPQLSRSHSSGSVLPLGELEGRRSTRDRRSPAEPEGGPASEGAARPLPRFNSVPLTDTGHERQSEGSFSPQLQESVFHLLVPSVILVLLAVGGLLFYRWRRRSHQEPQRADSPLEQPEGSPLTQDDRQVELPV
cells positive for both F4/80 and CD11b (SCF/2i GMPs; SCF/2i GMPs treated for 7 days): more than 99%
